Experiments:
[1] = target: human glucagon-like peptide 2 receptor (GLP2R) (Homo sapiens (Human), UniProt O95838); test: CRE-luciferase reporter bioassay, HEK293/Myc-hGLP2R/Cre-Luc cell line; assay type: cell-based
Protocol: (§4) Cells were incubated overnight at 37° C. in 5% CO2. […] Plates were incubated for 5.5 h at 37° C. in 5% CO2. For end-point measurement, 100 μL/well of One-Glo reagent (Promega, #E6051) was added and plates were kept at room temperature for 5-10 minutes. Luciferase activity was measured on Envision Multilabel Plate Reader (Perkin Elmer) in Luminescent mode. The relative light units (RLU) values were obtained and the results were analyzed using nonlinear regression with GraphPad Prism software (GraphPad).

[2] = target: human gastric inhibitory polypeptide receptor (GIPR) (Homo sapiens (Human), UniProt P48546); test: CRE-luciferase reporter bioassay, HEK293/Myc-hGIPR/Cre-Luc cell line; assay type: cell-based
Protocol: as §4

[3] = Liver microsome stability (intrinsic clearance); assay type: in vitro ADME; conditions: microsomes
Protocol: To assess the in vitro ADME properties of the LP, microsomal stability assay was performed to determine intrinsic clearance, and plasma protein binding assay was performed to understand the distribution potential.

[4] = tested on: Salmonella typhimurium TA98 and TA100; test: Mini-Ames reverse mutation assay with and without S9 mix; assay type: cell-based
Protocol: The objective of this Mini-Ames study was to evaluate the test article LP11, for its ability to induce reverse mutations in the genome of strains of Salmonella typhimurium TA98 and TA100 in the presence and absence of metabolic activation (S9 mixture).
The Mini-Ames assay was conducted for the test article in the presence and absence of the S9 mixture, concurrently with the negative/solvent control (DMSO) using six wells and positive controls (2 μg/well TA98 alone, 0.2 μg/well TA100 alone or 0.4 μg/well TA98+TA100 in the presence of S9) using three wells. The tested dose levels for the test article, in the presence and absence of S9 mix, were 1000, 400, 160, 64, 25, 10, 4, and 1.5 μg per well, with each dose tested in triplicate. The study was conducted using fresh cultures of the bacterial strains and fresh test article formulations.

[5] = human, 4 h, 2 µM
Protocol: An assay was performed to determine the plasma protein binding of compounds of the disclosure. For the assay, on the day of experiment, the plasma was thawed in cold water and centrifuged at 3220 rpm for 5 minutes to remove any clots. The pH value of the resulting plasma was checked
For the dialysis, the test compound and control compound were dissolved in DMSO to achieve 10 mM stock solutions. DMSO working solutions were prepared at 400 μM. To prepare the loading matrix, compound working solutions (5 μL) were added in a 1:200 ratio to blank matrix (995 μL) and mixed thoroughly. To prepare the time zero (TO) samples to be used for recovery determination, 50 μL aliquots of loading matrix were transferred in triplicate to the sample collection plate. The samples were immediately matched with opposite blank buffer to obtain a final volume of 100 μL of 1:1 matrix/dialysis buffer (v/v) in each well. 500 μL of stop solution were added to these TO samples. This was then stored at 2-8° C. pending further processes along with other post-dialysis samples. To load the dialysis device, an aliquot of 150 μL of the loading matrix was transferred to the donor side of each dialysis well in triplicate, and 150 μL of the dialysis buffer was loaded to the receiver side of the well. […]
The percent unbound, percent bound, and percent recovery values were calculated using the following equations: […]

human GLP1R = human GLP1R (Homo sapiens (Human), UniProt P43220); test: cAMP responsive luciferase reporter assay, HEK293/CRE-Luc/hGLP1R cells; assay type: cell-based
Text: (§1) To test the activity of GLP1R agonist payloads, GLP1R agonist linker-payloads (LPs), and anti-GLP1R antibody tethered drug conjugates (ATDCs) of the disclosure, a cell-based cAMP responsive luciferase reporter assay was developed. To generate the assay cell line, the firefly luciferase gene was placed under the control of a cAMP response element (CRE) located upstream of a minimal promoter and transfected into HEK293 cells and referred to herein as HEK293/CRE-Luc cells.
(§2) Three-fold serial dilutions of free payloads or LPs were prepared in 100% DMSO, transferred to fresh assay media, and added to the cells at a final constant DMSO concentration of 0.2%. The last well in the plate served as a blank control containing only the assay media and 0.2% DMSO (untreated well) and was plotted as a continuation of the 3-fold serial dilution. Four to six hours later, luciferase activity was determined after the addition of One-Glo™ reagent (Promega, Cat #E6130) to each well. Relative light units (RLUs) were measured on an Envision luminometer (PerkinElmer) and EC50 values were determined using a four-parameter logistic equation over a 12-point dose response curve (GraphPad Prism). The signal to noise (S/N) was determined by taking the ratio of the highest RLU on the dose response curve to the RLU in the untreated wells.
GLP1R agonist linker payloads were conjugated to anti-hGLP1R antibodies via N-terminal heavy or light chain Q tags. Several resulting anti-GLP1R antibody tethered drug conjugates (ATDCs) were tested for activity in the HEK293/CRE-Luc/hGLP1R reporter assay as described above for the free GLP1R payload and linker-payload agonists.

[6] = target: human glucagon receptor (GCGR) (Homo sapiens (Human), UniProt P47871); test: CRE-luciferase reporter bioassay, HEK293/Myc-hGCGR/Cre-Luc cell line; assay type: cell-based
Protocol: as §4

[7] = Plasma stability of payloads and linker-payloads, mouse plasma; assay type: in vitro ADME; conditions: assay time 3 days
Protocol: (§3) The plasma stability of payloads and linker payloads of the disclosure were measured. For the assay, pooled frozen plasma (human, mouse or monkey) was thawed in cold water or a 37° C. water bath prior to experiment. Plasma was centrifuged at 4000 rpm for 5 min if any clots were observed, they were subsequently removed. If required, the pH was adjusted to 7.4±0.1. For the preparation of compounds and positive controls, a 1 mM intermediate solution was prepared by diluting 10 μL of their stock solution with 90 μL DMSO; a 1 mM intermediate solution of the positive control (Propantheline) was prepared by diluting 10 μL of its stock solution with 90 μL ultrapure water. Subsequently, 100 μM dosing solution for each compound was prepared by diluting 20 μL of the intermediate solution (1 mM) with 180 μL 45% MeOH/H2O. 98 μL of plasma was spiked with 2 μL of dosing solution (100 μM) to achieve the final concentration of 2 μM in duplicate. Samples were then incubated at 37° C. in a water bath. […] At each time point, 400 μL of stop solution (200 ng/mL tolbutamide plus 200 ng/mL labetalol in 50% ACN/MeOH) was added to precipitate protein and mixed thoroughly. Sample plates were then centrifuged at 4,000 rpm for 10 min. An aliquot of supernatant (50 μL) was transferred from each well and mixed with 100 μL ultra-pure water. […]

HEK293/CRE-Luc cells = test: cAMP responsive luciferase reporter assay, HEK293/CRE-Luc cells (no hGLP1R expression); assay type: cell-based, human
Text: as §1, §2

[8] = Plasma stability of payloads and linker-payloads, monkey plasma; assay type: in vitro ADME; conditions: assay time 3 days
Protocol: as §3

[9] = relative to P8 of the same experiment

Sequence of human GLP1R (P43220 24-463): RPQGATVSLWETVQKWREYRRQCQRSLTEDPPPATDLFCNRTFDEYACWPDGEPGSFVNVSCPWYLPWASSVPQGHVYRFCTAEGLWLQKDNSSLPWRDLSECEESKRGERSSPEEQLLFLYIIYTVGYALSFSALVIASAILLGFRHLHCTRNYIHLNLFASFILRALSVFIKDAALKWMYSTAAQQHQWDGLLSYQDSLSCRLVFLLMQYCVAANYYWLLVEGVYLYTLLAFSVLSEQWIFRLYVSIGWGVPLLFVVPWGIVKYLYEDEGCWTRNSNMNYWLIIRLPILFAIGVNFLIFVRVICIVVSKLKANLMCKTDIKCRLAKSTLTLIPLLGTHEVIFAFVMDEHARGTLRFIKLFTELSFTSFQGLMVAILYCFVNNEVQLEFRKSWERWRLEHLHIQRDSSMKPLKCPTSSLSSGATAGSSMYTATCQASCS
Sequence of human glucagon-like peptide 2 receptor (GLP2R) (O95838 whole entry): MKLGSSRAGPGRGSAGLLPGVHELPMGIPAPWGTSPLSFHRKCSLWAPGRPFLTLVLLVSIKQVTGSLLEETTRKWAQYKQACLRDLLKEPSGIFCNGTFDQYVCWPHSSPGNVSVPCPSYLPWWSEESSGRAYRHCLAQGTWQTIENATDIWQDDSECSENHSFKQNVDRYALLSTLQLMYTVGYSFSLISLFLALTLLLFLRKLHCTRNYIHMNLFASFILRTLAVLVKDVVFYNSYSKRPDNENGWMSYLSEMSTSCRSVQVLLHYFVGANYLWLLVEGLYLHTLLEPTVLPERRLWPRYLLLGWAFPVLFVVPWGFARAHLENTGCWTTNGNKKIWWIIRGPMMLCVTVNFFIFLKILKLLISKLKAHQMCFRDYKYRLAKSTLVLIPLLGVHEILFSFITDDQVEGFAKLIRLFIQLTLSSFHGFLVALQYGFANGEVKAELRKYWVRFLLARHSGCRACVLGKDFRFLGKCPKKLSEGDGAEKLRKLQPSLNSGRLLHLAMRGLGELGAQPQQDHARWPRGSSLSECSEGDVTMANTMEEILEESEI
Sequence of human gastric inhibitory polypeptide receptor (GIPR) (P48546 22-466): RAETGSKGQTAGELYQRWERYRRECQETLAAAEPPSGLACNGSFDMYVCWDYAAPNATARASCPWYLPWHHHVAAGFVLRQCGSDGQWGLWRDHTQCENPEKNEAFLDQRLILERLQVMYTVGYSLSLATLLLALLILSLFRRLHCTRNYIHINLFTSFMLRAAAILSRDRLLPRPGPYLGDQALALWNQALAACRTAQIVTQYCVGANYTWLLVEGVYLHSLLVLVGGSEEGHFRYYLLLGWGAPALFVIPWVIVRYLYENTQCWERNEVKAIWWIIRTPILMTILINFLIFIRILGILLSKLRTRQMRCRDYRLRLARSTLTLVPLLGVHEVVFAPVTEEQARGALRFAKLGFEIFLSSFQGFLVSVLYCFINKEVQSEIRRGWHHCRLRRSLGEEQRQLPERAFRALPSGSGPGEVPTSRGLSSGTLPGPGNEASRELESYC
Sequence of human glucagon receptor (GCGR) (P47871 26-477): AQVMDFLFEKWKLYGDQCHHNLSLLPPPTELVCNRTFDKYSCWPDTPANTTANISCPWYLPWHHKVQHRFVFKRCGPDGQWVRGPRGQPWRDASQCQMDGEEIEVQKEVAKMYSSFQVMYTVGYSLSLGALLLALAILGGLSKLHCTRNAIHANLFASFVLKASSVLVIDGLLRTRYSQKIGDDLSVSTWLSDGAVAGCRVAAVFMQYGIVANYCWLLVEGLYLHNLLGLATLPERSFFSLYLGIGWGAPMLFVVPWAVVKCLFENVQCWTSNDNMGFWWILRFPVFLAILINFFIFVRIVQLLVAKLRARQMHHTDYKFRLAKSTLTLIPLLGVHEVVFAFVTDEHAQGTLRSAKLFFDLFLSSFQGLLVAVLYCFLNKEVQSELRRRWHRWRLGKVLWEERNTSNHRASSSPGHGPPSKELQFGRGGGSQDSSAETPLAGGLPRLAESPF

Compound | CRE-dependent reporter activity ([1]; HEK293/Myc-hGLP2R/Cre-Luc) | GLP2R, GIPR, or GCGR EC50 [2] | CLint(liver) [3] | T1/2 [3] | cytotoxicity in tester strains ([4]; 1.5-1000 μg per well, with or without S9 mix) | mutagenicity ([4]; Mini-Ames conclusion) | Ames (TA98 and TA100) in the presence and absence of S9 ([4]; TA98 and TA100, with and without S9) | increase in the mean number of revertant colonies relative to negative/solvent control ([4]; TA98 or TA100, any dose level, presence or absence of S9 mix) | % Recovery [5] | HEK293/CRE-LUC/hGLP1R S/N (human GLP1R; highest RLU / RLU of untreated wells) | HEK293/CRE-LUC/hGLP1R Relative Potency (% P8 EC50) (human GLP1R; [9]) | HEK293/CRE-LUC/hGLP1R Relative Signal:Noise (% P8) (human GLP1R; [9]) | GLP2R, GIPR, or GCGR EC50 [6] | plasma stability T½ [7] | GLP2R, GIPR, or GCGR EC50 ([1]; GLP2R) | EC50 (HEK293/CRE-Luc cells) | HEK293/CRE-LUC S/N (HEK293/CRE-Luc cells) | plasma stability T½ [8]
CC[C@H](C)[C@H](NC(=O)[C@H](Cc1ccccc1)NC(=O)[C@H](CC(=O)O)NC(=O)[C@H](CCCNC(=N)N)NC(=O)[C@H](C)NC(=O)[C@H](C)NC(=O)[C@H](CC(C)C)NC(=O)[C@H](CC(N)=O)NC(=O)[C@H](CC(=O)O)NC(=O)[C@H](CC(C)C)NC(=O)[C@@H](NC(=O)[C@@H](NC(=O)[C@H](CC(N)=O)NC(=O)[C@H](CCSC)NC(=O)[C@H](CCC(=O)O)NC(=O)[C@H](CC(=O)O)NC(=O)[C@H](CO)NC(=O)[C@H](Cc1ccccc1)NC(=O)[C@H](CO)NC(=O)CNC(=O)[C@H](CC(=O)O)NC(=O)[C@H](C)NC(=O)[C@@H](N)Cc1c[nH]cn1)[C@@H](C)O)[C@@H](C)CC)C(=O)N[C@@H](CC(N)=O)C(=O)N[C@@H](Cc1c[nH]c2ccccc12)C(=O)N[C@@H](CC(C)C)C(=O)N[C@H](C(=O)N[C@@H](CCC(N)=O)C(=O)N[C@H](C(=O)N[C@@H](CCCCN)C(=O)N[C@H](C(=O)N[C@H](C(=O)N[C@@H](CC(=O)O)C(=O)O)[C@@H](C)O)[C@@H](C)CC)[C@@H](C)O)[C@@H](C)CC [GLP2, reference compound] | activated individual cell lines as expected | – | – | – | – | – | – | – | – | – | – | – | – | – | – | – | – | –
CCc1cc(OCCCCn2cc(COCCOCCOCCOCCOCCOCCOCCOCCN)nn2)ccc1-c1ccc(C[C@H](NC(=O)[C@H](CC(=O)O)NC(=O)[C@H](CO)NC(=O)[C@@H](NC(=O)C(C)(Cc2ccccc2F)NC(=O)[C@@H](NC(=O)CNC(=O)[C@H](Cc2nn[nH]n2)NC(=O)C(C)(C)C(=O)NCCc2cnc[nH]2)[C@@H](C)O)[C@@H](C)O)C(=O)N[C@@H](CCCc2cc(C)cc(C)c2)C(N)=O)cc1 (stereo partly drawn) [LP11, NH2-PEG8-triazole-P8] | – | Completely inactive | <8.6 mL/min/kg | >2.42 h | no obvious cytotoxicity | negative for mutagenicity | Negative for | ≤ 2.0 fold | 89.2% | 74.5 | 33.1% | 113.3% | Completely inactive | >140 h | Completely inactive | > 200 nM | 1.3 | >49.4 h

Source: patent publication US20250161476A1 (REGENERON PHARMACEUTICALS, INC., priority 2020, published 2025)
